# From ChEMBL document CHEMBL5728837, “Non-fused tricyclic compounds” (2021)
# Test: YAP Reporter Assay: HEK293T cells stably transfected with 8XTBD luciferase reporter and pRLTK in 384-well plates were treated with the test compounds, starting from 3 μM (final concentration in assay plate), 1:3 dilution, and 10 points in quadruplicates. Post 24-hr incubation with compounds at 37° C. and 5% CO2, cells were lysed and 8XTBD-driven firefly luciferase and control TK-driven renilla luciferase activities were measured using Promega Dual-Luciferase Reporter Assay System.Reagents: The reagents used for this study are: DMEM: Invitrogen #11960077, Dual-Glo Luciferase Assay System: Promega-E2980, Puromycin Dihydrochloride: Invitrogen-A1113803, 384-well plate: PerkinElmer-6007480, L-GLUTAMINE: Invitrogen-25030164, Hygromycin B: Invitrogen-10687010, and Penicillin-Streptomycin: Merk-TMS-AB2-CMedia: The media used for this assay were: Culture Medium: DMEM+1 ug/mL puromycin+200 ug/mL hygromycin (with 10% FBS+1 mM L-glutamine); and Assay Medium: DMEM (with 10% FBS+1 mM L-glutamine+1× P/S).Cell Plating: The appropriate media was warmed at 37° C. by water bath: Culture Medium, Assay Medium, 1*D-PBS, 0.05% trypsin-EDTA. The cells were trypsinized after removing all media, then washed with 1*sterile D-PBS and then with 2 ml 0.05% trypsin-EDTA. The cells were then incubated at RT for one minute. Then 10 ml/75 cm2 flask Assay Medium was added to each flask. Using a 10 ml pipette, the cells were then gently resuspended in the media, until the clumps completely disappeared. The cells were then transferred into 50 ml centrifuge tubes and were centrifuged at 800 rpm for 5 mins. The medium was removed and the cells were resuspended with Assay Medium. An aliquot of cells was used to count the cell density (cells/nil). The cell suspension was then diluted with Assay Medium to a concentration of 6×10^4 cells/ml. 50 ul cells suspension was then plated to 384-well plate (PerkinElmer-6007480), 3×10^3 cells/well and the cells were incubated in an incubator at 37° C., 5% CO2.Compound Treatment: In the afternoon (incubation of the plate with 3-4 hrs), the test compounds were added by Echo, starting from 3 uM (final concentration in the assay plate), 1:3 dilution, 10 points, quadruplicates. The plate was placed at 37° C., 5% CO2 incubator for 24 hrs.Detection: The Dual-Glo Luciferase Reagent was prepared by transferring the contents of one bottle of Dual-Glo Luciferase Buffer to one bottle of Dual-Glo Luciferase Substrate to create the Dual-Glo Luciferase Reagent. Mixing was performed by inversion until the substrate was thoroughly dissolved. After mixing, the reagent was aliquoted into 15 ml tubes. In the afternoon (24 hrs post compound treatment), the DMEM+ medium in the 384 well plates were aspirated by Microplate Washer.Measuring firefly luciferase activity: 20 ul Dual-Glo Luciferase Reagent was added to the 384-well plates. The plates were protected from light to prevent interference with the assay. The plates were shaken for 1 min followed centrifuging plates at 1000 rpm for 30 seconds. After waiting at least 10 minutes, the firefly luminescence was measured by Envision.Measuring renilla luciferase activity: 20 ul Stop-Glo Reagent was added to the 384-well plates. The plates were shaken for lmin and then centrifuged at 1000 rpm for 30 seconds. After waiting at least 10 minutes, the renilla luminescence was measured by Envision.
# Conditions: not given
row,SMILES,IC50
1,OCCn1nnc(-c2ccccc2Nc2ccc(C(F)(F)F)cc2)n1,< 100 nM

# Same assay, conditions: HEK-293T, 24 h
row,SMILES,IC50
1,OC1(Cn2nnc(-c3ccccc3Nc3ccc(C(F)(F)F)cc3)n2)CC1,< 100 nM
2,OC1(Cn2nnc(-c3ccccc3Nc3ccc(C(F)(F)F)cc3)n2)CCNCC1,in the range around 3000 nM
3,OCC(O)Cn1nnc(-c2ccccc2Nc2ccc(C(F)(F)F)cc2)n1 (stereo not drawn),< 100 nM
4,CCc1cccc(Nc2ccccc2-c2nnn(CCO)n2)c1,in the range around 550 nM
5,OCCn1nnc(-c2ccccc2Nc2ccc(SC(F)(F)F)cc2)n1,in the range around 550 nM
6,Cn1nnc(-c2ccccc2Nc2ccc(C(F)(F)F)cc2)n1,in the range around 550 nM
7,OCCn1cnc(-c2ccccc2Nc2ccc(C(F)(F)F)cc2)c1,in the range around 550 nM
8,COC1CCCC1n1nnc(-c2ccccc2Nc2ccc(C(F)(F)F)cc2)n1 (stereo not drawn),in the range around 550 nM
9,OCCn1nnc(-c2cccnc2Nc2ccc(C(F)(F)F)cc2)n1,in the range around 550 nM
10,OCCn1nnc(-c2ccccc2Nc2cccc(F)c2)n1,in the range around 550 nM
11,OCCn1nnc(-c2ccccc2Nc2cccc(Cl)c2)n1,in the range around 3000 nM
12,NC(=O)Cn1nnc(-c2ccccc2Nc2ccc(C(F)(F)F)cc2)n1,< 100 nM
13,OCCn1nnc(-c2ccccc2Nc2ccc(C(F)(F)F)cc2)n1,< 100 nM
14,FC(F)(F)c1ccc(Nc2ccccc2-c2nnn(C3CCOCC3)n2)cc1,in the range around 550 nM
15,CC(C)(O)Cn1nnc(-c2ccccc2Nc2ccc(C(F)(F)F)cc2)n1,< 100 nM
16,CC(=O)NCCn1nnc(-c2ccccc2Nc2ccc(C(F)(F)F)cc2)n1,in the range around 550 nM
17,OC1(Cn2nnc(-c3ccccc3Nc3ccc(C(F)(F)F)cc3)n2)CCC1,< 100 nM
18,CC(CO)n1nnc(-c2ccccc2Nc2ccc(C(F)(F)F)cc2)n1 (stereo not drawn),< 100 nM
19,CCOC(=O)Cn1ncc(-c2ccccc2Nc2ccc(C(F)(F)F)cc2)c1C,< 100 nM
20,CCN(CC)C(=O)Cn1nnc(-c2ccccc2Nc2ccc(C(F)(F)F)cc2)n1,in the range around 3000 nM
21,OC1(Cn2nnc(-c3ccccc3Nc3ccc(C(F)(F)F)cc3)n2)CCOCC1,in the range around 550 nM
22,OCCn1nnc(-c2ccccc2Nc2ccc(Cl)cc2)n1,in the range around 550 nM
23,CO[C@H](C)[C@H](C)n1nnc(-c2ccccc2Nc2ccc(C(F)(F)F)cc2)n1,in the range around 550 nM
24,O=C(O)Cn1cc(-c2ccccc2Nc2ccc(C(F)(F)F)cc2)cn1,in the range around 550 nM
25,FC(F)(F)c1ccc(Nc2ccccc2-c2nnn(C3CNC3)n2)cc1,in the range around 3000 nM
26,FC(F)(F)c1ccc(Nc2ccccc2-c2nnn(-c3ccccn3)n2)cc1,in the range around 550 nM
27,OCCn1nnc(-c2ccccc2Nc2ccc(OC(F)(F)F)cc2)n1,< 100 nM
